Assay results reported in PubChem BioAssay AID330 (DTP/NCI, 2004).
Where “and” joins values, the source holds several entries; their conditions need not be identical. Equal entries are not always repeated. Inconclusive results and toxic doses are left out. Rule for the calls: active = survival T/C of 150% or more; inactive = T/C below 125% in these data. Square brackets hold non-standard residues; d marks the D form. Peptide text beside a SMILES is read from it. Ac5c = NC1(C(=O)O)CCCC1

Tested on: P388 leukemia ip, CD2F1 mice, survival T/C
Experiment: NCI In Vivo Anticancer Drug Screen. Data for tumor model P388 Leukemia (intraperitoneal) in CD2F1 (CDF1) mice
Settings: endpoint: median survival time, higher = longer survival
Outline: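 Mice carrying the transplanted tumor received test compound or vehicle. Survival was recorded in each group, and the value is the treated-group measurement divided by that of the vehicle-treated control group.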

[1] = dose: 100.0 mg/kg/injection, schedule: Q01DX009 (ip), vehicle: saline with Tween-80
[2] = dose: 200.0 mg/kg/injection, schedule: Q01DX009 (ip), vehicle: saline with Tween-80
[3] = dose: 100.0 mg/kg/injection, schedule: Q04DX003 (ip), vehicle: Klucel (hydroxypropylcellulose) (HPC)
[4] = dose: 200.0 mg/kg/injection, schedule: Q04DX003 (ip), vehicle: Klucel (hydroxypropylcellulose) (HPC)
[5] = dose: 400.0 mg/kg/injection, schedule: Q04DX003 (ip), vehicle: Klucel (hydroxypropylcellulose) (HPC)
[6] = dose: 60.0 mg/kg/injection, schedule: Q01DX005 (ip), vehicle: Klucel (hydroxypropylcellulose) (HPC)
[7] = dose: 120.0 mg/kg/injection, schedule: Q01DX005 (ip), vehicle: Klucel (hydroxypropylcellulose) (HPC)
[8] = dose: 240.0 mg/kg/injection, schedule: Q01DX005 (ip), vehicle: Klucel (hydroxypropylcellulose) (HPC)
[9] = dose: 50.0 mg/kg/injection, schedule: Q01DX009 (ip), vehicle: saline with Tween-80
[10] = dose: 50.0 mg/kg/injection, schedule: Q01DX005 (ip), vehicle: saline with Tween-80
[11] = dose: 100.0 mg/kg/injection, schedule: Q01DX005 (ip), vehicle: saline with Tween-80
[12] = dose: 200.0 mg/kg/injection, schedule: Q01DX005 (ip), vehicle: saline with Tween-80
[13] = dose: 25.0 mg/kg/injection, schedule: Q04DX003 (ip), vehicle: other

Measured: T/C

COc1ccc(Br)cc1/C=N\NS(=O)(=O)c1ccc(C)cc1
inactive: [1] 104 % of control | dose: 100.0 mg/kg/injection, schedule: Q04DX003 (ip), vehicle: saline with Tween-80 116 % of control | [2] 109 % of control | dose: 200.0 mg/kg/injection, schedule: Q04DX003 (ip), vehicle: saline with Tween-80 100 % of control | dose: 400.0 mg/kg/injection, schedule: Q01DX009 (ip), vehicle: saline with Tween-80 122 % of control | dose: 400.0 mg/kg/injection, schedule: Q04DX003 (ip), vehicle: saline with Tween-80 108 % of control

NC1(C(=O)NCC(=O)O)CCCC1 (H-[Ac5c]-Gly-OH)
inactive: dose: 50.0 mg/kg/injection, schedule: Q04DX003 (ip), vehicle: Klucel (hydroxypropylcellulose) (HPC) 99 % of control | [3] 99 % of control | [4] 97 % of control | [5] 112 % of control

COC(=O)C1=C(C(=O)OC)C2C=CC1C1C(Br)C(Br)C21 (stereo not drawn)
inactive: dose: 50.0 mg/kg/injection, schedule: Q01DX009 (ip), vehicle: Klucel (hydroxypropylcellulose) (HPC) 100 % of control | dose: 100.0 mg/kg/injection, schedule: Q01DX009 (ip), vehicle: Klucel (hydroxypropylcellulose) (HPC) 102 % of control | dose: 200.0 mg/kg/injection, schedule: Q01DX009 (ip), vehicle: Klucel (hydroxypropylcellulose) (HPC) 100 % of control

O=C(CN1CCC(O)(c2ccc(F)cc2)CC1)N1CCN(C/C=C/c2ccccc2)CC1
inactive: [6] 96 % of control | [7] 95 % of control | [8] 95 % of control

C=C1N=NN(c2ccc(C)cc2)C1N1CCOCC1 (stereo not drawn)
inactive: [6] 93 % of control | [7] 99 % of control | [8] 90 % of control

CCC[CH2][Sn]1([CH2]CCC)[O]C2C(O)OC(CO)C(O)C2[O]1 (stereo not drawn)
inactive: dose: 1.56 mg/kg/injection, schedule: Q04DX003 (ip), vehicle: saline 107 % of control | dose: 3.12 mg/kg/injection, schedule: Q04DX003 (ip), vehicle: saline 107 % of control and 109 % of control | dose: 6.25 mg/kg/injection, schedule: Q04DX003 (ip), vehicle: saline 111 % of control

CC(=O)O.CC(=O)O.[Co+2].[NH-]C(CCC(N)=O)C(=O)O.[NH-]C(CCC(N)=O)C(=O)O (stereo not drawn)
inactive: [9] 98 % of control

C/C1=C\CCC(C)C2CCC(C)(O2)C(O)C(O)c2c(C)coc2C1 (stereo not drawn)
inactive: dose: 4.0 mg/kg/injection, schedule: Q01DX009 (ip), vehicle: Klucel (hydroxypropylcellulose) (HPC) 100 % of control | dose: 8.0 mg/kg/injection, schedule: Q01DX009 (ip), vehicle: Klucel (hydroxypropylcellulose) (HPC) 105 % of control | dose: 16.0 mg/kg/injection, schedule: Q01DX009 (ip), vehicle: Klucel (hydroxypropylcellulose) (HPC) 100 % of control | dose: 32.0 mg/kg/injection, schedule: Q01DX009 (ip), vehicle: Klucel (hydroxypropylcellulose) (HPC) 94 % of control

C=CCOP1(OCC=C)=NP(OCC=C)(OCC=C)=NP(OCC=C)(OCC=C)=N1
inactive: [10] 96 % of control | [11] 100 % of control | [12] 102 % of control

CC1=C(C)CN(c2ccnc3cc(Cl)ccc23)OC1
inactive: [10] 102 % of control | [11] 97 % of control | [12] 97 % of control

C=CCn1c(=S)sc2ccccc21
inactive: dose: 6.25 mg/kg/injection, schedule: Q01DX009 (ip), vehicle: Klucel (hydroxypropylcellulose) (HPC) 105 % of control | dose: 12.5 mg/kg/injection, schedule: Q01DX009 (ip), vehicle: Klucel (hydroxypropylcellulose) (HPC) 105 % of control | dose: 25.0 mg/kg/injection, schedule: Q01DX009 (ip), vehicle: Klucel (hydroxypropylcellulose) (HPC) 104 % of control

O=c1[nH]c2nc3ccccc3n2nc1-c1ccccc1
inactive: dose: 100.0 mg/kg/injection, schedule: Q01DX001 (ip), vehicle: Klucel (hydroxypropylcellulose) (HPC) 89 % of control

CCCCN=C(N)NN=C(c1ccc(C)cc1)c1ccc(C)cc1
inactive: dose: 25.0 mg/kg/injection, schedule: Q04DX002 (ip), vehicle: saline with Tween-80 102 % of control | dose: 50.0 mg/kg/injection, schedule: Q04DX002 (ip), vehicle: saline with Tween-80 99 % of control

O/C(=C/c1ncnc2ccccc12)c1cccc(Cl)c1
inactive: dose: 60.0 mg/kg/injection, schedule: Q01DX005 (ip), vehicle: saline with Tween-80 102 % of control | dose: 120.0 mg/kg/injection, schedule: Q01DX005 (ip), vehicle: saline with Tween-80 92 % of control

CCc1cc(CN2CCN(CCO)CC2)c(O)c(CN2CCN(CCO)CC2)c1
inactive: dose: 60.0 mg/kg/injection, schedule: Q01DX005 (ip), vehicle: saline 102 % of control | dose: 120.0 mg/kg/injection, schedule: Q01DX005 (ip), vehicle: saline 97 % of control | dose: 240.0 mg/kg/injection, schedule: Q01DX005 (ip), vehicle: saline 99 % of control

Cc1c2ccccc2c(C)c2c1cc[n+]1ccccc21
inactive: dose: 6.25 mg/kg/injection, schedule: Q04DX003 (ip), vehicle: other 105 % of control | dose: 12.5 mg/kg/injection, schedule: Q04DX003 (ip), vehicle: other 103 % of control | [13] 99 % of control

COc1cc(OC)c(/C=C\c2nccc3ccccc23)c(OC)c1
inactive: [9] 95 % of control | [1] 96 % of control | [2] 96 % of control

CCCCCCCCCCC1OCN2CC(CC)CCC12 (stereo not drawn)
inactive: dose: 50.0 mg/kg/injection, schedule: Q01DX005 (ip), vehicle: saline 100 % of control | dose: 100.0 mg/kg/injection, schedule: Q01DX005 (ip), vehicle: saline 101 % of control | dose: 200.0 mg/kg/injection, schedule: Q01DX005 (ip), vehicle: saline 105 % of control

CCOC(=O)N1c2ccccc2C=CC1OCC (stereo not drawn)
inactive: dose: 6.0 mg/kg/injection, schedule: Q04DX003 (ip), vehicle: other 95 % of control | dose: 12.0 mg/kg/injection, schedule: Q04DX003 (ip), vehicle: other 100 % of control | [13] 100 % of control

CC1(C)CC(OP(=[Se])(OC2CC(C)(C)N(O)C(C)(C)C2)N2CC2)CC(C)(C)N1O
inactive: dose: 12.5 mg/kg/injection, schedule: Q01DX001 (ip), vehicle: Klucel (hydroxypropylcellulose) (HPC) 102 % of control | dose: 25.0 mg/kg/injection, schedule: Q01DX001 (ip), vehicle: Klucel (hydroxypropylcellulose) (HPC) 105 % of control | dose: 50.0 mg/kg/injection, schedule: Q01DX001 (ip), vehicle: Klucel (hydroxypropylcellulose) (HPC) 106 % of control

Cc1c(N=Nc2ccccc2Cl)c(-c2ccccc2)nn1C(=S)S
inactive: [10] 111 % of control | [11] 108 % of control | [12] 111 % of control

O=C(NCN1CCCCC1)c1ccccc1
inactive: dose: 25.0 mg/kg/injection, schedule: Q01DX005 (ip), vehicle: saline with Tween-80 93 % of control and 95 % of control | [10] 98 % of control and 101 % of control and 105 % of control | [11] 102 % of control and 104 % of control | [12] 102 % of control and 113 % of control

COC(=O)C1(OC)C(=O)NC2=C1C(=O)c1ccccc1C2=O (stereo not drawn)
inactive: [10] 94 % of control | [11] 105 % of control | [12] 106 % of control

Fc1ccc(CN2COc3c(cc(Cl)c4cccnc34)C2)cc1
inactive: [3] 102 % of control | [4] 100 % of control | [5] 110 % of control

O=S(=O)(Oc1ccc2ccccc2c1)C(F)(F)C(F)(F)C(F)(F)C(F)(F)F
inactive: [9] 100 % of control | [1] 108 % of control | [2] 108 % of control

Nc1nc(N)c2cnnn2n1
inactive: [10] 95 % of control | [11] 102 % of control | [12] 110 % of control
